Experiments:
Sorbitol dehydrogenase = target: T1, Sorbitol dehydrogenase (Homo sapiens, UniProt Q00796); experiment: In vitro inhibitory activity against human SDH
T1 sequence (Q00796 whole entry): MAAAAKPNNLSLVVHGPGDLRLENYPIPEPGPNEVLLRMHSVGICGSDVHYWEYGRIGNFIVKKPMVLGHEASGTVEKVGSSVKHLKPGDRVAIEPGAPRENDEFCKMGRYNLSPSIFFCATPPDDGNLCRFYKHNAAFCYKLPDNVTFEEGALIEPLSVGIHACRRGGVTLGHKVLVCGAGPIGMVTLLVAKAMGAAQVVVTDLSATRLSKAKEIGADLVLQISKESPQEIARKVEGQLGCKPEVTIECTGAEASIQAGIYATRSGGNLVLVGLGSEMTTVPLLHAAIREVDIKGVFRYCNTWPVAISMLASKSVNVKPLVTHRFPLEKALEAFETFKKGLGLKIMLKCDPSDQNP

Rattus norvegicus = experiment: In vivo inhibition of diabetic rat sciatic nerve fructose accumulation; type: functional

| IC50 (Sorbitol dehydrogenase) | SMILES | ED50 (Rattus norvegicus) |
| --- | --- | --- |
| 486 nM | CO[C@@H](C)c1nccc(N2CCN(S(=O)(=O)N(C)C)CC2)n1 | 9 mg/kg |
| 27 nM | C[C@@H](O)c1nccc(N2CCN(S(=O)(=O)N(C)C)CC2)n1 | 1.6 mg/kg |
| 246 nM | CN(C)S(=O)(=O)N1CCN(c2ccnc(CO)n2)CC1 | 14.1 mg/kg |
| 173 nM | CC(O)c1nccc(N2CCN(S(=O)(=O)N(C)C)CC2)n1 (stereo not drawn) | 2.4 mg/kg |

Reference: ChEMBL document CHEMBL1134443, “Sorbitol dehydrogenase inhibitors (SDIs): a new potent, enantiomeric SDI, 4-[2-1R-hydroxy-ethyl)-pyrimidin-4-yl]piperazine-1-sulfonic acid dimethylamide” (J Med Chem, 2001)
